Activity calls are given as the source filed them. The rule behind the calls is not given here.
How the values were obtained:
Tryptase (Homo sapiens) = Tryptase (Homo sapiens) (UniProt Q9BZJ3+Q15661+Q9NRR2); experiment: Inhibitor specificity constant ki/Ki was evaluated for the compound against tryptase; NI means No inhibition; format: protein assay
Prothrombin = Prothrombin (Homo sapiens, UniProt P00734); experiment: Evaluated for inhibition against thrombin
[1] = target: Serine protease 1 (Homo sapiens) (UniProt P07477); experiment: The inhibitor specificity constant ki/Ki was evaluated for the compound against trypsin
[2] = target: Coagulation factor X (Homo sapiens) (UniProt P00742); experiment: Inhibitor specificity constant ki/Ki was evaluated for the compound against Factor Xa
Chain of Coagulation factor X (Homo sapiens) (P00742 41-179 limits assumed): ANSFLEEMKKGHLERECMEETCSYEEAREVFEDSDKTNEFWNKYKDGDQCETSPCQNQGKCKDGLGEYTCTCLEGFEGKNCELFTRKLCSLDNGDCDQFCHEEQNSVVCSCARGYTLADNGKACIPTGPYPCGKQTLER
Chain of Coagulation factor X (Homo sapiens) (P00742 235-488 limits assumed): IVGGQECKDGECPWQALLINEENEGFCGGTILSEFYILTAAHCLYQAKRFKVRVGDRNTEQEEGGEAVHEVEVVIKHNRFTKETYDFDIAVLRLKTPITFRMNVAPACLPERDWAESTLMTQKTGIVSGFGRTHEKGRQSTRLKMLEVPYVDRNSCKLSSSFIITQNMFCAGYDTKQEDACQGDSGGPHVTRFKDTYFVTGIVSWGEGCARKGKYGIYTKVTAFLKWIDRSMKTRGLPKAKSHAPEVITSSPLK

Chain of Serine protease 1 (Homo sapiens) (P07477 whole entry): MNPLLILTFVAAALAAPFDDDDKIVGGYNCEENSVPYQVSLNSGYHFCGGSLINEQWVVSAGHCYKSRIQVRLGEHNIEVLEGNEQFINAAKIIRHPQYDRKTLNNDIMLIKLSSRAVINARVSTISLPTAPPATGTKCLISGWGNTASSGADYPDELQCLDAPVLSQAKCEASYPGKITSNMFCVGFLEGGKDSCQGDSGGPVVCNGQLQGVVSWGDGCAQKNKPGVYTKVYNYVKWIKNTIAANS

COc1ccc(C(=O)OC[C@H](CCCN=C(N)N)NC(=O)[C@H](CCC(N)=O)NC(=O)[C@H](CCCN=C(N)N)NC(C)=O)cc1
ki/Ki (Tryptase (Homo sapiens)): inactive

COc1ccc(C(=O)OC[C@H](CCCN=C(N)N)NC(=O)[C@@H]2CCCN2C(=O)[C@@H](Cc2ccccc2)NC(=O)OC(C)(C)C)cc1
Ki (Prothrombin): 14 µM | ki/Ki [1]: 0.0417 M⁻¹ s⁻¹

CC[C@H](C)[C@H](NC(=O)OC(C)(C)C)C(=O)N[C@@H](CCC(=O)O)C(=O)NCC(=O)N[C@@H](CCCN=C(N)N)COC(=O)c1ccc(OC)cc1
ki/Ki [2]: 0.075 M⁻¹ s⁻¹
